Read-outs that look alike come from different tables or passages of the source.
What was measured:
MCF-7 cells = assay: MTT cytotoxicity assay, MCF-7 breast cancer cells; type: cell-based; details: Homo sapiens
Procedure: (§1) All cells were incubated at 37 °C in 5% carbon dioxide atmosphere (NuAire). Cells were plated at a density of 5x10^4 cells in triplicates in a plate of 96 wells. On the second day, cells were treated with the compounds with concentrations of (0.01, 0.1, 1, 10, and 100 µM). Cell viability was assessed using the MTT assay [6].

MDA-MB-231 cells = assay: MTT cytotoxicity assay, MDA-MB-231 breast cancer cells; type: cell-based
Procedure: as §1

WISH cells = assay: MTT cytotoxicity (safety) assay, normal WISH cells; type: cell-based; details: mean ± SD of three independent trials
Procedure: The cytotoxicity of the synthesized compounds was tested using the MTT assay on breast cancer cells (MCF-7 and MDA-MB-231).
The methods for the Cytotoxic activity ([Mosmann, 1983]; [Nafie et al., 2020a]); EGFR/CDK-2 enzyme inhibition ([Nafie et al., 2022a]); Flow cytometry using Annexin V/PI staining; Gene expression analysis using RT-PCR ([Nafie et al., 2022b]); are amended in the Supplementary Material S1.
as §1, with “Both breast cancer; MCF-7 and MDA-MB-231 and normal (WISH) cells were purchased from the National Research Institute, Egypt, and maintained in RPMI-1640 medium L-Glutamine (Lonza Verviers SPRL, Belgium, cat#12-604F). All” for “All”

EGFR kinase = molecular target: T1, EGFR kinase (Homo sapiens, UniProt P00533); assay: EGFR kinase inhibition assay; type: biochemical; details: for % remaining EGFR kinase activity (relative to control): signal relative to control
T1 construct: purchased BPS Bioscience Corporation 40321
Procedure: (§2) Inhibitory activities of 5g, 5l, and 5n were tested against EGFR and CDK-2.
(§3) Plus, Promega, USA) inhibition assay.

CDK-2 kinase = molecular target: T2, CDK-2 kinase (Homo sapiens, UniProt P24941); assay: CDK-2 kinase inhibition assay (Kinase-Glo Plus); type: biochemical; details: for CDK-2 kinase activity remaining (% of control): signal relative to control
T2 construct: purchased not clearly printed (Promega, USA is printed after 'Kinase-Glo Plus'; #79599 is a BPS Bioscience number to my knowledge) 79599
Procedure: as §2, §3

[1] = MCF7, MTT assay, mean ± SD of three independent trials, read-out: IC50 ± SD, MCF-7
[2] = Homo sapiens, MDA-MB-231, MTT assay, mean ± SD of three independent trials, read-out: IC50 ± SD, MDA-MB-231
[3] = average of three independent replicates

T1 sequence (P00533 25-1210): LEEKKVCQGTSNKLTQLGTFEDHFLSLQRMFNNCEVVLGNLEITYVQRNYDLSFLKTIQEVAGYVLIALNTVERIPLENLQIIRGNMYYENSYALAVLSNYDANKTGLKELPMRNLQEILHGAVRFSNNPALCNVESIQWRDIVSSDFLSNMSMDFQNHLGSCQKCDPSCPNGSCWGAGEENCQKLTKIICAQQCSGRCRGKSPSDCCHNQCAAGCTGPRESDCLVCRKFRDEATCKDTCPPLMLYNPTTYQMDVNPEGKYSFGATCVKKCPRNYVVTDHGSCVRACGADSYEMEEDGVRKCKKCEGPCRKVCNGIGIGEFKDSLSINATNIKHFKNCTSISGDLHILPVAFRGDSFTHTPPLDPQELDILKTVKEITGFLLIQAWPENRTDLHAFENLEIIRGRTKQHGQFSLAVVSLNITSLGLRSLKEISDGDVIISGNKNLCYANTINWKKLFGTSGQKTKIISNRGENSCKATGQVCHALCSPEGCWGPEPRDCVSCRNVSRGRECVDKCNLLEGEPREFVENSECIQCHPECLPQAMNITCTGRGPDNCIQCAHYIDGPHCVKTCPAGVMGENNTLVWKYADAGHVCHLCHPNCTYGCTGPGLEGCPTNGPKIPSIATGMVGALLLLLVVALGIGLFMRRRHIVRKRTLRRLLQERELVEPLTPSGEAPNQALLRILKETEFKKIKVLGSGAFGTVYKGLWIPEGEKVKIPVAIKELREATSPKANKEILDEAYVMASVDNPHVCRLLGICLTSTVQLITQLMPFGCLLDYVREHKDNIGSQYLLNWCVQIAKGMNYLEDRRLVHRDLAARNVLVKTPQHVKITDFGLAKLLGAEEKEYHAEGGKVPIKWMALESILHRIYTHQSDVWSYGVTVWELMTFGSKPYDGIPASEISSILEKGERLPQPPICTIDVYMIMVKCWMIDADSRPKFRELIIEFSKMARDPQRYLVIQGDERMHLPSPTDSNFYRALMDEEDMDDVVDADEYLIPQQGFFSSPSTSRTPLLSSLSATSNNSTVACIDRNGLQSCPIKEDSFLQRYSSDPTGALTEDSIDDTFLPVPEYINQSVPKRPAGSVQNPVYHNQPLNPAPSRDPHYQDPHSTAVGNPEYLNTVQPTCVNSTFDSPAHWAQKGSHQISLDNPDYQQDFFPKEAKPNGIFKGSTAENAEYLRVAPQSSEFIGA

In the case of `O=C(CN1C(=O)S[C@@]2(C1=O)[C@@H](c1ccc(Cl)cc1)[C@H]1CSCN1[C@@]21C(=O)Nc2ccc(Cl)cc21)NCCN1CCOCC1` [Compound 5k], the IC50 (MCF-7 cells; [1]) is reported as 21.4 ± 0.9 µM and the IC50 (MDA-MB-231 cells; [2]) is reported as 19.5 ± 0.7 µM.
`COC(=O)CNC(=O)CN1C(=O)S[C@@]2(C1=O)[C@@H](c1ccc(Cl)cc1)[C@H]1CSCN1[C@@]21C(=O)Nc2cc(Cl)ccc21` [Compound 5b, Methyl (2-((3S,6′S,7′S,7a′S)-6-chloro-7'-(4-chlorophenyl)-2,2″,4″-trioxo-7′,7a′-dihydro-1′H,3′H-dispiro [indoline-3,5′-pyrrolo [1,2-c]thiazole-6′,5″-thiazolidin]-3″-yl)acetyl)glycinate] gave an IC50 (MCF-7 cells; [1]) of 7.8 ± 0.32 µM and an IC50 (MDA-MB-231 cells; [2]) of 32.5 ± 0.42 µM.
Work on `COC(=O)[C@@H](NC(=O)CN1C(=O)S[C@@]2(C1=O)[C@@H](c1ccc(Br)cc1)[C@H]1CSCN1[C@@]21C(=O)Nc2cc(Cl)ccc21)C(C)C` [Compound 5l, Methyl (2-((3S,6′S,7′S,7a′S)-7'-(4-bromophenyl)-6-chloro-2,2″,4″-trioxo-7′,7a′-dihydro-1′H,3′H-dispiro [indoline-3,5′-pyrrolo [1,2-c]thiazole-6′,5″-thiazolidin]-3″-yl)acetyl)valinate] yielded an IC50 (MCF-7 cells; [1]) of 3.4 ± 0.5 µM, an IC50 (MDA-MB-231 cells; [2]) of 8.45 µM and an IC50 (MDA-MB-231 cells; MTT assay, mean ± SD of three independent trials, listed as C00012, read-out: IC50 ± SD, MDA-MB-231) of 8.43 ± 0.6 µM. The IC50 (WISH cells) was 43.5 ± 2 µM, the “% remaining EGFR kinase activity (relative to control)” value (EGFR kinase; 0.01 µM, ΔT=30 min) was 69.72% and the inhibition at 0.01 µM (EGFR kinase; 0.01 µM, ΔT=30 min) was 30.3%. For the same molecule, the “% remaining EGFR kinase activity (relative to control)” value (EGFR kinase; 0.1 µM, ΔT=30 min) was 60.14%, the inhibition at 0.1 µM (EGFR kinase; 0.1 µM, ΔT=30 min) was 39.9% and the “% remaining EGFR kinase activity (relative to control)” value (EGFR kinase; 1 µM, ΔT=30 min) was 48.86%. The inhibition at 1 µM (EGFR kinase; 1 µM, ΔT=30 min) was 51.1%, the “% remaining EGFR kinase activity (relative to control)” value (EGFR kinase; 2.5 µM, ΔT=30 min) was 41.25% and the inhibition at 2.5 µM (EGFR kinase; 2.5 µM, ΔT=30 min) was 58.7%. The “% remaining EGFR kinase activity (relative to control)” value (EGFR kinase; 5 µM, ΔT=30 min) was 19.88%, the inhibition at 5 µM (EGFR kinase; 5 µM, ΔT=30 min) was 80.1% and the “% remaining EGFR kinase activity (relative to control)” value (EGFR kinase; 10 µM, ΔT=30 min) was 11.75%. The inhibition at 10 µM (EGFR kinase; 10 µM, ΔT=30 min) was 89.9%, the IC50 (EGFR kinase; [3]) was 0.067 ± 0.001 µM and the “% Of EGFR inhibition” value (EGFR kinase; concentration not given in Table 2, matches 10 µM in the 4th table) was 89.8 ± 2.8%. The “CDK-2 kinase activity remaining (% of control)” value (CDK-2 kinase; 0.01 µM, ΔT=30 min) was 90.99%, the inhibition at 0.01 µM (CDK-2 kinase; 0.01 µM, ΔT=30 min, read-out: % of inhibition, CDK2) was 9.01% and the “CDK-2 kinase activity remaining (% of control)” value (CDK-2 kinase; 0.1 µM, ΔT=30 min) was 76%. The inhibition at 0.1 µM (CDK-2 kinase; 0.1 µM, ΔT=30 min, read-out: % of inhibition, CDK2) was 24%, the “CDK-2 kinase activity remaining (% of control)” value (CDK-2 kinase; 1 µM, ΔT=30 min) was 60.44% and the inhibition at 1 µM (CDK-2 kinase; 1 µM, ΔT=30 min, read-out: % of inhibition, CDK2) was 39.6%. For the same molecule, the “CDK-2 kinase activity remaining (% of control)” value (CDK-2 kinase; 2.5 µM, ΔT=30 min) was 56.06%, the inhibition at 2.5 µM (CDK-2 kinase; 2.5 µM, ΔT=30 min, read-out: % of inhibition, CDK2) was 43.9% and the “CDK-2 kinase activity remaining (% of control)” value (CDK-2 kinase; 5 µM, ΔT=30 min) was 36.07%. The inhibition at 5 µM (CDK-2 kinase; 5 µM, ΔT=30 min, read-out: % of inhibition, CDK2) was 63.9%, the “CDK-2 kinase activity remaining (% of control)” value (CDK-2 kinase; 10 µM, ΔT=30 min) was 29.31% and the inhibition at 10 µM (CDK-2 kinase; 10 µM, ΔT=30 min, read-out: % of inhibition, CDK2) was 89.4%. The IC50 (CDK-2 kinase; [3]) was 0.345 µM.
For `COC(=O)CNC(=O)CN1C(=O)S[C@@]2(C1=O)[C@@H](c1ccc(Cl)cc1)[C@H]1CSCN1[C@@]21C(=O)Nc2ccc(Cl)cc21` [Compound 5a, Methyl (2-((3S,6′S,7′S,7a′S)-5-chloro-7'-(4-chlorophenyl)-2,2″,4″-trioxo-7′,7a′-dihydro-1′H,3′H-dispiro [indoline-3,5′-pyrrolo [1,2-c]thiazole-6′,5″-thiazolidin]-3″-yl)acetyl)glycinate], the IC50 (MCF-7 cells; [1]) was 5.87 ± 0.5 µM and the IC50 (MDA-MB-231 cells; [2]) was 29.5 ± 1.3 µM.
With `O=C(O)CN1C(=O)S[C@@]2(C1=O)[C@@H](c1ccc(Cl)cc1)[C@H]1CSCN1[C@@]21C(=O)Nc2ccc(F)cc21` [Compound 5d, 2-((3S,6′S,7′S,7a′S)-7'-(4-Chlorophenyl)-5-fluoro-2,2″,4″-trioxo-7′,7a′-dihydro-1′H,3′H-dispiro [indoline-3,5′-pyrrolo [1,2-c]thiazole-6′,5″-thiazolidin]-3″-yl)acetic acid] the IC50 (MCF-7 cells; [1]) was 19.4 ± 0.4 µM and the IC50 (MDA-MB-231 cells; [2]) was 9.8 ± 0.35 µM.
`O=C(CN1C(=O)S[C@@]2(C1=O)[C@@H](c1ccc(Cl)cc1)[C@H]1CSCN1[C@@]21C(=O)Nc2ccc(F)cc21)NCCN1CCOCC1` [Compound 5j] was tested, and the IC50 (MCF-7 cells; [1]) was 23.4 ± 1.2 µM and the IC50 (MDA-MB-231 cells; [2]) was 21.4 ± 0.8 µM.
`COC(=O)[C@@H](NC(=O)CN1C(=O)S[C@@]2(C1=O)[C@@H](c1ccc(Br)cc1)[C@H]1CSCN1[C@@]21C(=O)Nc2ccc(F)cc21)C(C)C` [Compound 5m, Methyl (2-((3S,6′S,7′S,7a′S)-7'-(4-bromophenyl)-5-fluoro-2,2″,4″-trioxo-7′,7a′-dihydro-1′H,3′H-dispiro [indoline-3,5′-pyrrolo [1,2-c]thiazole-6′,5″-thiazolidin]-3″-yl)acetyl)valinate] gave an IC50 (MCF-7 cells; [1]) of 4.5 ± 0.4 µM and an IC50 (MDA-MB-231 cells; [2]) of 6.3 ± 0.3 µM.
With `O=C(O)CN1C(=O)S[C@@]2(C1=O)[C@@H](c1ccc(Cl)cc1)[C@H]1CSCN1[C@@]21C(=O)Nc2cc(Cl)ccc21` [Compound 5c, 2-((3S,6′S,7′S,7a′S)-6-chloro-7'-(4-chlorophenyl)-2,2″,4″-trioxo-7′,7a′-dihydro-1′H,3′H-dispiro [indoline-3,5′-pyrrolo [1,2-c]thiazole-6′,5″-thiazolidin]-3″-yl)acetic acid] the IC50 (MCF-7 cells; [1]) was 15.8 ± 0.4 µM and the IC50 (MDA-MB-231 cells; [2]) was 24.2 ± 1.1 µM.
In the case of `C#Cc1cccc(Nc2ncnc3cc(OCCOC)c(OCCOC)cc23)c1` [Erlotinib, reference compound], the IC50 (MCF-7 cells; MCF7, read-out: IC50 ± SD, MCF-7) is reported as 2.14 ± 0.3 µM and the IC50 (MDA-MB-231 cells; Homo sapiens, MDA-MB-231, read-out: IC50 ± SD, MDA-MB-231) is reported as 3.25 ± 0.5 µM.
For `O=C(CN1C(=O)S[C@@]2(C1=O)[C@@H](c1ccc(Cl)cc1)[C@H]1CSCN1[C@@]21C(=O)Nc2ccc([N+](=O)[O-])cc21)NCCN1CCOCC1` [Compound 5i], the IC50 (MCF-7 cells; [1]) was 28.7 ± 0.8 µM and the IC50 (MDA-MB-231 cells; [2]) was 35.3 ± 1.2 µM.
Molecule `O=C(O)CN1C(=O)S[C@@]2(C1=O)[C@@H](c1ccc(Cl)cc1)[C@H]1CSCN1[C@@]21C(=O)Nc2ccc([N+](=O)[O-])cc21` [Compound 5f, 2-((3S,6′S,7′S,7a′S)-7'-(4-Chlorophenyl)-5-nitro-2,2″,4″-trioxo-7′,7a′-dihydro-1′H,3′H-dispiro [indoline-3,5′-pyrrolo [1,2-c]thiazole-6′,5″-thiazolidin]-3″-yl)acetic acid] has an IC50 (MCF-7 cells; [1]) of 18.5 ± 0.6 µM and an IC50 (MDA-MB-231 cells; [2]) of 35.5 ± 1.1 µM.
`Cc1ccc2c(c1)[C@@]1(C(=O)N2)N2CSC[C@@H]2[C@H](c2ccc(Cl)cc2)[C@]12SC(=O)N(CC(=O)O)C2=O` [Compound 5e, 2-((3S,6′S,7′S,7a′S)-7'-(4-Chlorophenyl)-5-methyl-2,2″,4″-trioxo-7′,7a′-dihydro-1′H,3′H-dispiro [indoline-3,5′-pyrrolo [1,2-c]thiazole-6′,5″-thiazolidin]-3″-yl)acetic acid] showed an IC50 (MCF-7 cells; [1]) of 9.8 ± 0.7 µM and an IC50 (MDA-MB-231 cells; [2]) of 5.4 ± 0.6 µM.
Work on `COC(=O)CCCNC(=O)CN1C(=O)S[C@@]2(C1=O)[C@@H](c1ccc(Br)cc1)[C@H]1CSCN1[C@@]21C(=O)Nc2cc(Cl)ccc21` [Compound 5o, Methyl 4-(2-((3S,6′S,7′S,7a′S)-7'-(4-bromophenyl)-6-chloro-2,2″,4″-trioxo-7′,7a′-dihydro-1′H,3′H-dispiro [indoline-3,5′-pyrrolo [1,2-c]thiazole-6′,5″-thiazolidin]-3″-yl)acetamido)butanoate] yielded an IC50 (MCF-7 cells; [1]) of 4.12 ± 0.4 µM and an IC50 (MDA-MB-231 cells; [2]) of 4.32 ± 0.5 µM.

Reference: PMC10937419, “Exploring pyrrolidinyl-spirooxindole natural products as promising platforms for the synthesis of novel spirooxindoles as EGFR/CDK2 inhibitors for halting breast cancer cells” (Frontiers in Chemistry, 2024)
